Where “and” joins values, the source holds several entries; their conditions need not be identical. Equal values may be shown once. Results filed as inconclusive are left out.
Tested on: BDF1 mice, B16 melanoma s.c., survival/tumor T/C
Test: NCI In Vivo Anticancer Drug Screen. Data for tumor model B16 Melanoma (subcutaneous) in B6D2F1 (BDF1) mice
Method: The antitumor activity of compounds was measured in mice bearing transplantable tumors. Survival or tumor size were measured and the results are expressed as the measurement made in the treated group (T) divided by the measurement made in the vehicle treated control group (C). The tumor model used in this assay is B16 Melanoma (subcutaneous) in B6D2F1 (BDF1) mice

[1] = endpoint: median survival time, dose: 50.0 mg/kg/injection, schedule: Q01DX009 (ip), vehicle: Klucel (hydroxypropylcellulose) (HPC), higher = longer survival
[2] = endpoint: median survival time, dose: 5.0 mg/kg/injection, schedule: Q01DX009 (ip), vehicle: water, higher = longer survival

CCOc1ccc2nc(S(N)(=O)=O)sc2c1
T/C (endpoint: median survival time, dose: 3.75 mg/kg/injection, schedule: Q01DX009 (ip), vehicle: saline, higher = longer survival): 121 % of control | T/C (endpoint: median survival time, dose: 7.5 mg/kg/injection, schedule: Q01DX009 (ip), vehicle: saline, higher = longer survival): 123 % of control | T/C (endpoint: median survival time, dose: 15.0 mg/kg/injection, schedule: Q01DX009 (ip), vehicle: saline, higher = longer survival): 121 % of control | T/C (endpoint: median survival time, dose: 30.0 mg/kg/injection, schedule: Q01DX009 (ip), vehicle: saline, higher = longer survival): 95 % of control

CCO/C=C1\SC(=S)N(c2ccc(C(=O)O)cc2)C1=O
T/C (endpoint: median survival time, dose: 3.12 mg/kg/injection, schedule: Q01DX009 (ip), vehicle: Klucel (hydroxypropylcellulose) (HPC), higher = longer survival): 110 % of control | T/C (endpoint: median survival time, dose: 6.25 mg/kg/injection, schedule: Q01DX009 (ip), vehicle: Klucel (hydroxypropylcellulose) (HPC), higher = longer survival): 101 % of control | T/C (endpoint: median survival time, dose: 12.5 mg/kg/injection, schedule: Q01DX009 (ip), vehicle: Klucel (hydroxypropylcellulose) (HPC), higher = longer survival): 118 % of control | T/C [1]: 121 % of control | T/C (endpoint: median survival time, dose: 100.0 mg/kg/injection, schedule: Q01DX009 (ip), vehicle: Klucel (hydroxypropylcellulose) (HPC), higher = longer survival): 121 % of control

CN1c2c(nc(N)[nH]c2=O)NCC1CCNc1ccc(C(=O)NC(CCC(=O)O)C(=O)O)cc1 (centres undefined)
T/C (endpoint: median survival time, dose: 600.0 mg/kg/injection, schedule: Q04DX003 (ip), vehicle: saline, higher = longer survival): 118 % of control and 123 % of control | T/C (endpoint: median survival time, dose: 800.0 mg/kg/injection, schedule: Q01DX001 (ip), vehicle: saline, higher = longer survival): 108 % of control | T/C (endpoint: median survival time, dose: 800.0 mg/kg/injection, schedule: Q04DX003 (ip), vehicle: saline, higher = longer survival): 113 % of control | T/C (endpoint: median survival time, dose: 900.0 mg/kg/injection, schedule: Q04DX003 (ip), vehicle: saline, higher = longer survival): 159 % of control | T/C (endpoint: median survival time, dose: 1200.0 mg/kg/injection, schedule: Q01DX001 (ip), vehicle: saline, higher = longer survival): 119 % of control and 121 % of control | T/C (endpoint: median survival time, dose: 1800.0 mg/kg/injection, schedule: Q01DX001 (ip), vehicle: saline, higher = longer survival): 121 % of control | T/C (endpoint: median survival time, dose: 2400.0 mg/kg/injection, schedule: Q01DX001 (ip), vehicle: saline, higher = longer survival): 121 % of control

CCC1=C(C[C@H]2NCCc3cc(OC)c(OC)cc32)C[C@H]2c3cc(OC)c(OC)cc3CCN2C1
T/C (endpoint: median survival time, dose: 2.0 mg/kg/injection, schedule: Q01DX005 (ip), vehicle: saline, higher = longer survival): 87 % of control | T/C (endpoint: median survival time, dose: 4.0 mg/kg/injection, schedule: Q01DX005 (ip), vehicle: saline, higher = longer survival): 93 % of control | T/C (endpoint: median survival time, dose: 8.0 mg/kg/injection, schedule: Q01DX005 (ip), vehicle: saline, higher = longer survival): 110 % of control | T/C (endpoint: median survival time, dose: 16.0 mg/kg/injection, schedule: Q01DX005 (ip), vehicle: saline, higher = longer survival): 114 % of control

CCCCC(=O)OCC(=O)[C@]1(O)Cc2c(O)c3c(c(O)c2[C@@H](OC2CC(NC(=O)C(F)(F)F)C(O)C(C)O2)C1)C(=O)c1c(OC)cccc1C3=O (some centres undefined)
T/C (endpoint: median survival time, dose: 9.0 mg/kg/injection, schedule: Q01DX008 (ip), vehicle: distilled water + Tween-80, higher = longer survival): 104 % of control | T/C (endpoint: median survival time, dose: 13.0 mg/kg/injection, schedule: Q01DX008 (ip), vehicle: distilled water + Tween-80, higher = longer survival): 118 % of control | T/C (endpoint: median survival time, dose: 20.0 mg/kg/injection, schedule: Q01DX008 (ip), vehicle: distilled water + Tween-80, higher = longer survival): 110 % of control | T/C (endpoint: median survival time, dose: 30.0 mg/kg/injection, schedule: Q01DX008 (ip), vehicle: distilled water + Tween-80, higher = longer survival): 124 % of control

CCCCS(=O)CC(CO)NC(=O)/C=C/c1c(C)[nH]c(=O)[nH]c1=O (centres undefined)
T/C (endpoint: median survival time, dose: 1.25 mg/kg/injection, schedule: Q01DX009 (ip), vehicle: water, higher = longer survival): 100 % of control | T/C [2]: 100 % of control | T/C (endpoint: median survival time, dose: 10.0 mg/kg/injection, schedule: Q01DX009 (ip), vehicle: water, higher = longer survival): 116 % of control

O=[N+]([O-])O.[Ga]
T/C (endpoint: median survival time, dose: 4.0 mg/kg/injection, schedule: Q01DX009 (ip), vehicle: saline, higher = longer survival): 109 % of control | T/C (endpoint: median survival time, dose: 16.0 mg/kg/injection, schedule: Q01DX009 (ip), vehicle: saline, higher = longer survival): 91 % of control | T/C (endpoint: median survival time, dose: 32.0 mg/kg/injection, schedule: Q01DX009 (ip), vehicle: saline, higher = longer survival): 86 % of control | T/C (endpoint: median survival time, dose: 40.0 mg/kg/injection, schedule: Q01DX009 (ip), vehicle: saline, higher = longer survival): 99 % of control | T/C (endpoint: median survival time, dose: 64.0 mg/kg/injection, schedule: Q01DX009 (ip), vehicle: saline, higher = longer survival): 95 % of control | T/C (endpoint: median survival time, dose: 90.0 mg/kg/injection, schedule: Q01DX009 (ip), vehicle: saline, higher = longer survival): 104 % of control | T/C (endpoint: median survival time, dose: 200.0 mg/kg/injection, schedule: Q04DX003 (ip), vehicle: saline, higher = longer survival): 99 % of control | T/C (endpoint: median survival time, dose: 400.0 mg/kg/injection, schedule: Q01DX001 (ip), vehicle: saline, higher = longer survival): 100 % of control | T/C (endpoint: median survival time, dose: 600.0 mg/kg/injection, schedule: Q01DX001 (ip), vehicle: saline, higher = longer survival): 100 % of control

CC1(C)CC(O)(C(Cl)c2ccccc2)C(=O)c2ccccc21 (centres undefined)
T/C (endpoint: median survival time, dose: 88.0 mg/kg/injection, schedule: Q01DX009 (ip), vehicle: distilled water + Tween-80, higher = longer survival): 96 % of control | T/C (endpoint: median survival time, dose: 133.0 mg/kg/injection, schedule: Q01DX009 (ip), vehicle: distilled water + Tween-80, higher = longer survival): 97 % of control | T/C (endpoint: median survival time, dose: 200.0 mg/kg/injection, schedule: Q01DX009 (ip), vehicle: distilled water + Tween-80, higher = longer survival): 93 % of control | T/C (endpoint: median survival time, dose: 300.0 mg/kg/injection, schedule: Q01DX009 (ip), vehicle: distilled water + Tween-80, higher = longer survival): 89 % of control | T/C (endpoint: median tumor weight (est.), dose: 133.0 mg/kg/injection, schedule: Q01DX009 (ip), vehicle: distilled water + Tween-80, higher = larger tumour): 71 % of control | T/C (endpoint: median tumor weight (est.), dose: 200.0 mg/kg/injection, schedule: Q01DX009 (ip), vehicle: distilled water + Tween-80, higher = larger tumour): 106 % of control | T/C (endpoint: median tumor weight (est.), dose: 300.0 mg/kg/injection, schedule: Q01DX009 (ip), vehicle: distilled water + Tween-80, higher = larger tumour): 91 % of control

Nc1ccc(N(CCCl)CCN(CCCl)c2ccc(N)cc2)cc1
T/C (endpoint: median survival time, dose: 0.36 mg/kg/injection, schedule: Q01DX009 (ip), vehicle: saline, higher = longer survival): 124 % of control | T/C (endpoint: median survival time, dose: 0.75 mg/kg/injection, schedule: Q01DX009 (ip), vehicle: saline, higher = longer survival): 114 % of control | T/C (endpoint: median survival time, dose: 1.5 mg/kg/injection, schedule: Q01DX009 (ip), vehicle: saline, higher = longer survival): 103 % of control | T/C (endpoint: median survival time, dose: 3.0 mg/kg/injection, schedule: Q01DX009 (ip), vehicle: saline, higher = longer survival): 98 % of control

C[C@]12C=CC(=O)C=C1CC[C@@H]1[C@@H]2C(=O)C[C@@]2(C)[C@H]1CC[C@]2(O)C(=O)CO
T/C [1]: 95 % of control and 123 % of control | T/C (endpoint: median survival time, dose: 50.0 mg/kg/injection, schedule: Q01DX009 (ip), vehicle: saline with Tween-80, higher = longer survival): 124 % of control | T/C (endpoint: median survival time, dose: 50.0 mg/kg/injection, schedule: Q01DX009 (ip), vehicle: saline, higher = longer survival): 116 % of control | T/C (endpoint: median survival time, dose: 100.0 mg/kg/injection, schedule: Q01DX009 (ip), vehicle: saline with Tween-80, higher = longer survival): 151 % of control | T/C (endpoint: median survival time, dose: 100.0 mg/kg/injection, schedule: Q01DX009 (ip), vehicle: saline, higher = longer survival): 100 % of control | T/C (endpoint: median survival time, dose: 200.0 mg/kg/injection, schedule: Q01DX009 (ip), vehicle: saline with Tween-80, higher = longer survival): 157 % of control and 168 % of control | T/C (endpoint: median survival time, dose: 400.0 mg/kg/injection, schedule: Q01DX009 (ip), vehicle: saline with Tween-80, higher = longer survival): 159 % of control | T/C (endpoint: median tumor weight (est.), dose: 50.0 mg/kg/injection, schedule: Q01DX009 (ip), vehicle: Klucel (hydroxypropylcellulose) (HPC), higher = larger tumour): 12 % of control and 30 % of control | T/C (endpoint: median tumor weight (est.), dose: 50.0 mg/kg/injection, schedule: Q01DX009 (ip), vehicle: saline with Tween-80, higher = larger tumour): 26 % of control | T/C (endpoint: median tumor weight (est.), dose: 100.0 mg/kg/injection, schedule: Q01DX009 (ip), vehicle: Klucel (hydroxypropylcellulose) (HPC), higher = larger tumour): 37 % of control | T/C (endpoint: median tumor weight (est.), dose: 100.0 mg/kg/injection, schedule: Q01DX009 (ip), vehicle: saline with Tween-80, higher = larger tumour): 41 % of control | T/C (endpoint: median tumor weight (est.), dose: 200.0 mg/kg/injection, schedule: Q01DX009 (ip), vehicle: Klucel (hydroxypropylcellulose) (HPC), higher = larger tumour): 22 % of control | T/C (endpoint: median tumor weight (est.), dose: 200.0 mg/kg/injection, schedule: Q01DX009 (ip), vehicle: saline with Tween-80, higher = larger tumour): 12 % of control

C=CCN1/C(=C/C=C\c2sc3ccccc3[n+]2CC=C)Sc2ccccc21
T/C (endpoint: median survival time, dose: 125.0 micrograms/kg/injection, schedule: Q01DX009 (ip), vehicle: suspension in saline, higher = longer survival): 121 % of control

O=c1[nH]c(=O)n([C@H]2CCCO2)cc1F
T/C (endpoint: median survival time, dose: 23.0 mg/kg/injection, schedule: Q01DX009 (ip), vehicle: saline, higher = longer survival): 101 % of control | T/C (endpoint: median survival time, dose: 39.0 mg/kg/injection, schedule: Q01DX009 (ip), vehicle: saline, higher = longer survival): 100 % of control | T/C (endpoint: median survival time, dose: 65.0 mg/kg/injection, schedule: Q01DX009 (ip), vehicle: saline, higher = longer survival): 100 % of control | T/C (endpoint: median survival time, dose: 108.0 mg/kg/injection, schedule: Q04DX003 (ip), vehicle: saline, higher = longer survival): 118 % of control | T/C (endpoint: median survival time, dose: 180.0 mg/kg/injection, schedule: Q04DX003 (ip), vehicle: saline, higher = longer survival): 107 % of control

CN(C)CCCN1c2ccccc2Sc2ccc(Cl)cc21
T/C (endpoint: median survival time, dose: 0.06 mg/kg/injection, schedule: Q01DX009 (ip), vehicle: saline, higher = longer survival): 98 % of control | T/C (endpoint: median survival time, dose: 0.12 mg/kg/injection, schedule: Q01DX009 (ip), vehicle: saline, higher = longer survival): 92 % of control | T/C (endpoint: median survival time, dose: 0.5 mg/kg/injection, schedule: Q01DX009 (ip), vehicle: saline, higher = longer survival): 97 % of control | T/C (endpoint: median survival time, dose: 1.0 mg/kg/injection, schedule: Q01DX009 (ip), vehicle: saline, higher = longer survival): 98 % of control

O=C(O)CCC(=O)O
T/C [2]: 117 % of control and 102 % of control | T/C (endpoint: median survival time, dose: 40.0 mg/kg/injection, schedule: Q01DX009 (ip), vehicle: water, higher = longer survival): 114 % of control [middle of 6 runs] | T/C (endpoint: median survival time, dose: 80.0 mg/kg/injection, schedule: Q01DX009 (ip), vehicle: water, higher = longer survival): 97 % of control [middle of 5 runs] | T/C (endpoint: median survival time, dose: 160.0 mg/kg/injection, schedule: Q01DX009 (ip), vehicle: water, higher = longer survival): 96 % of control [middle of 4 runs]

From PubChem BioAssay AID194 (DTP/NCI, 2004)
